Test results reported in PubChem BioAssay (NCI).
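GI50: concentration for 50% inhibition of growth. TGI denotes the concentration required for complete inhibition of growth.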

Experiments:
Test in all cases: NCI anticancer screen, dose series, 384-well format
RPMI-8226 leukemia = test system: RPMI-8226 leukemia
MOLT-4 leukemia = test system: MOLT-4 leukemia
COLO 205 colon = test system: COLO 205 colon
HT29 colon = test system: HT29 colon
IGROV1 ovarian = test system: IGROV1 ovarian
NCI-H460 NSCLC = test system: NCI-H460 NSCLC
DU-145 prostate = test system: DU-145 prostate
SNB-19 CNS = test system: SNB-19 CNS
NCI/ADR-RES ovarian = test system: NCI/ADR-RES ovarian
SR leukemia = test system: SR leukemia
SK-MEL-5 melanoma = test system: SK-MEL-5 melanoma
HL-60(TB) leukemia = test system: HL-60(TB) leukemia
MALME-3M melanoma = test system: MALME-3M melanoma
M14 melanoma = test system: M14 melanoma
SNB-75 CNS = test system: SNB-75 CNS
HCC-2998 colon = test system: HCC-2998 colon
MDA-MB-435 melanoma = test system: MDA-MB-435 melanoma
CCRF-CEM leukemia = test system: CCRF-CEM leukemia
SF-268 CNS = test system: SF-268 CNS
T-47D breast = test system: T-47D breast
MDA-MB-231 breast = test system: MDA-MB-231 breast
HOP-92 NSCLC = test system: HOP-92 NSCLC
OVCAR-3 ovarian = test system: OVCAR-3 ovarian
EKVX NSCLC = test system: EKVX NSCLC
SF-295 CNS = test system: SF-295 CNS
PC-3 prostate = test system: PC-3 prostate
UACC-62 melanoma = test system: UACC-62 melanoma
A498 renal = test system: A498 renal
ACHN renal = test system: ACHN renal
786-0 renal = test system: 786-0 renal
KM12 colon = test system: KM12 colon
CAKI-1 renal = test system: CAKI-1 renal
HS 578T breast = test system: HS 578T breast
NCI-H322M lung = test system: NCI-H322M lung
K-562 leukemia = test system: K-562 leukemia
MDA-MB-468 breast = test system: MDA-MB-468 breast
OVCAR-4 ovarian = test system: OVCAR-4 ovarian
NCI-H23 lung = test system: NCI-H23 lung
UACC-257 melanoma = test system: UACC-257 melanoma
TK-10 renal = test system: TK-10 renal
HOP-62 NSCLC = test system: HOP-62 NSCLC
U251 glioblastoma = test system: U251 glioblastoma
RXF 393 renal = test system: RXF 393 renal
SW-620 colon = test system: SW-620 colon
OVCAR-5 ovarian = test system: OVCAR-5 ovarian
A549 NSCLC = test system: A549 NSCLC
SK-MEL-28 melanoma = test system: SK-MEL-28 melanoma
NCI-H522 lung = test system: NCI-H522 lung
OVCAR-8 ovarian = test system: OVCAR-8 ovarian
NCI-H226 lung = test system: NCI-H226 lung
SN12C renal = test system: SN12C renal
SK-OV-3 ovarian = test system: SK-OV-3 ovarian
BT-549 breast = test system: BT-549 breast
UO-31 renal = test system: UO-31 renal
HCT-15 colon = test system: HCT-15 colon
LOX IMVI melanoma = test system: LOX IMVI melanoma
SF-539 CNS = test system: SF-539 CNS

Work on `COc1ccc(-c2ccc3c(N4CCOC[C@@H]4C)nc(N4CCOC[C@@H]4C)nc3n2)cc1CO` yielded a GI50 (RPMI-8226 leukemia) of under 0.01 µM, a TGI (RPMI-8226 leukemia) of 0.01 µM and a GI50 (MOLT-4 leukemia) of 0.0179 µM. For the same molecule, the TGI (MOLT-4 leukemia) was 0.322 µM, the GI50 (COLO 205 colon) was 0.0244 µM and the TGI (COLO 205 colon) was 1.35 µM. The GI50 (HT29 colon) was 0.102 µM, the TGI (HT29 colon) was 14.7 µM and the GI50 (IGROV1 ovarian) was 0.0122 µM. For the same molecule, the TGI (IGROV1 ovarian) was 0.0569 µM, the GI50 (NCI-H460 NSCLC) was under 0.01 µM and the TGI (NCI-H460 NSCLC) was 11.9 µM. For the same molecule, the GI50 (DU-145 prostate) was 0.0406 µM, the TGI (DU-145 prostate) was 13.3 µM and the GI50 (SNB-19 CNS) was 0.249 µM. For the same molecule, the TGI (SNB-19 CNS) was 18.5 µM, the GI50 (NCI/ADR-RES ovarian) was 0.102 µM and the TGI (NCI/ADR-RES ovarian) was 26.7 µM. For the same molecule, the GI50 (SR leukemia) was 0.0113 µM, the TGI (SR leukemia) was 0.043 µM and the GI50 (SK-MEL-5 melanoma) was 0.0105 µM. For the same molecule, the TGI (SK-MEL-5 melanoma) was 0.0891 µM, the GI50 (HL-60(TB) leukemia) was 0.322 µM and the TGI (HL-60(TB) leukemia) was 12.8 µM. It also gave a GI50 (MALME-3M melanoma) of under 0.01 µM, a TGI (MALME-3M melanoma) of 0.0347 µM and a GI50 (M14 melanoma) of 0.019 µM. The TGI (M14 melanoma) was 10.5 µM, the GI50 (SNB-75 CNS) was 0.0143 µM and the TGI (SNB-75 CNS) was 0.207 µM. For the same molecule, the GI50 (HCC-2998 colon) was 0.077 µM, the TGI (HCC-2998 colon) was 14.9 µM and the GI50 (MDA-MB-435 melanoma) was 0.0424 µM. The TGI (MDA-MB-435 melanoma) was 0.562 µM, the GI50 (CCRF-CEM leukemia) was 0.0149 µM and the TGI (CCRF-CEM leukemia) was 1.82 µM. For the same molecule, the GI50 (SF-268 CNS) was 0.0629 µM, the TGI (SF-268 CNS) was 12.9 µM and the GI50 (T-47D breast) was under 0.01 µM. It also gave a TGI (T-47D breast) of 0.0236 µM, a GI50 (MDA-MB-231 breast) of 0.0219 µM and a TGI (MDA-MB-231 breast) of 11.1 µM. For the same molecule, the GI50 (HOP-92 NSCLC) was 0.0191 µM, the TGI (HOP-92 NSCLC) was 0.34 µM and the GI50 (OVCAR-3 ovarian) was 0.0299 µM. The TGI (OVCAR-3 ovarian) was 11.1 µM, the GI50 (EKVX NSCLC) was 0.0233 µM and the TGI (EKVX NSCLC) was 0.583 µM. The GI50 (SF-295 CNS) was 0.0122 µM, the TGI (SF-295 CNS) was 0.0877 µM and the GI50 (PC-3 prostate) was 0.0161 µM. The TGI (PC-3 prostate) was 10.2 µM, the GI50 (UACC-62 melanoma) was 0.0189 µM and the TGI (UACC-62 melanoma) was 0.208 µM. The GI50 (A498 renal) was under 0.01 µM, the TGI (A498 renal) was 0.0519 µM and the GI50 (ACHN renal) was 0.0254 µM. For the same molecule, the TGI (ACHN renal) was 11.5 µM, the GI50 ([…]-0 renal) was 0.0422 µM and the TGI (786-0 renal) was 12.1 µM. It also gave a GI50 (KM12 colon) of 0.0294 µM, a TGI (KM12 colon) of 11.4 µM and a GI50 (CAKI-1 renal) of 0.0316 µM. It also gave a TGI (CAKI-1 renal) of 0.842 µM, a GI50 (HS 578T breast) of 0.0128 µM and a TGI (HS 578T breast) of 0.0563 µM. For the same molecule, the GI50 (NCI-H322M lung) was 0.0276 µM, the TGI (NCI-H322M lung) was 11.1 µM and the GI50 (K-562 leukemia) was 0.0563 µM. It also gave a TGI (K-562 leukemia) of 13.2 µM, a GI50 (MDA-MB-468 breast) of 0.0152 µM and a TGI (MDA-MB-468 breast) of 0.0567 µM. It also gave a GI50 (OVCAR-4 ovarian) of 0.0129 µM, a TGI (OVCAR-4 ovarian) of 0.0953 µM and a GI50 (NCI-H23 lung) of 0.06 µM. The TGI (NCI-H23 lung) was 14.3 µM, the GI50 (UACC-257 melanoma) was 0.0429 µM and the TGI (UACC-257 melanoma) was 0.396 µM. It also gave a GI50 (TK-10 renal) of 0.0938 µM, a TGI (TK-10 renal) of 0.749 µM and a GI50 (HOP-62 NSCLC) of 0.0292 µM. It also gave a TGI (HOP-62 NSCLC) of 1.88 µM, a GI50 (U251 glioblastoma) of 0.0872 µM and a TGI (U251 glioblastoma) of 17.4 µM. It also gave a GI50 (RXF 393 renal) of 0.0273 µM, a TGI (RXF 393 renal) of 12 µM and a GI50 (SW-620 colon) of 0.12 µM. For the same molecule, the TGI (SW-620 colon) was 13.3 µM, the GI50 (OVCAR-5 ovarian) was 0.0302 µM and the TGI (OVCAR-5 ovarian) was 1.9 µM. It also gave a GI50 (A549 NSCLC) of 0.0204 µM, a TGI (A549 NSCLC) of 6.35 µM and a GI50 (SK-MEL-28 melanoma) of 0.0199 µM. For the same molecule, the TGI (SK-MEL-28 melanoma) was 0.436 µM, the GI50 (NCI-H522 lung) was 0.0229 µM and the TGI (NCI-H522 lung) was 10 µM. For the same molecule, the GI50 (OVCAR-8 ovarian) was 0.0462 µM, the TGI (OVCAR-8 ovarian) was 11.6 µM and the GI50 (NCI-H226 lung) was 0.0179 µM. The TGI (NCI-H226 lung) was 0.284 µM, the GI50 (SN12C renal) was 0.019 µM and the TGI (SN12C renal) was 11.1 µM. It also gave a GI50 (SK-OV-3 ovarian) of 0.0176 µM, a TGI (SK-OV-3 ovarian) of 0.365 µM and a GI50 (BT-549 breast) of 0.0182 µM. It also gave a TGI (BT-549 breast) of 0.192 µM, a GI50 (UO-31 renal) of 0.0818 µM and a TGI (UO-31 renal) of 19 µM. The GI50 (HCT-15 colon) was 0.0239 µM, the TGI (HCT-15 colon) was 11.3 µM and the GI50 (LOX IMVI melanoma) was 0.0316 µM. It also gave a TGI (LOX IMVI melanoma) of 0.294 µM, a GI50 (SF-539 CNS) of 0.0322 µM and a TGI (SF-539 CNS) of 11 µM.
